Like-named read-outs stand apart in the source and are kept apart here.
Biological target: T1, Androgen Receptor (Homo sapiens, UniProt P10275)
T1 construct: endogenous in cells; host or cells: VCaP cells
T1 sequence (P10275 1-920): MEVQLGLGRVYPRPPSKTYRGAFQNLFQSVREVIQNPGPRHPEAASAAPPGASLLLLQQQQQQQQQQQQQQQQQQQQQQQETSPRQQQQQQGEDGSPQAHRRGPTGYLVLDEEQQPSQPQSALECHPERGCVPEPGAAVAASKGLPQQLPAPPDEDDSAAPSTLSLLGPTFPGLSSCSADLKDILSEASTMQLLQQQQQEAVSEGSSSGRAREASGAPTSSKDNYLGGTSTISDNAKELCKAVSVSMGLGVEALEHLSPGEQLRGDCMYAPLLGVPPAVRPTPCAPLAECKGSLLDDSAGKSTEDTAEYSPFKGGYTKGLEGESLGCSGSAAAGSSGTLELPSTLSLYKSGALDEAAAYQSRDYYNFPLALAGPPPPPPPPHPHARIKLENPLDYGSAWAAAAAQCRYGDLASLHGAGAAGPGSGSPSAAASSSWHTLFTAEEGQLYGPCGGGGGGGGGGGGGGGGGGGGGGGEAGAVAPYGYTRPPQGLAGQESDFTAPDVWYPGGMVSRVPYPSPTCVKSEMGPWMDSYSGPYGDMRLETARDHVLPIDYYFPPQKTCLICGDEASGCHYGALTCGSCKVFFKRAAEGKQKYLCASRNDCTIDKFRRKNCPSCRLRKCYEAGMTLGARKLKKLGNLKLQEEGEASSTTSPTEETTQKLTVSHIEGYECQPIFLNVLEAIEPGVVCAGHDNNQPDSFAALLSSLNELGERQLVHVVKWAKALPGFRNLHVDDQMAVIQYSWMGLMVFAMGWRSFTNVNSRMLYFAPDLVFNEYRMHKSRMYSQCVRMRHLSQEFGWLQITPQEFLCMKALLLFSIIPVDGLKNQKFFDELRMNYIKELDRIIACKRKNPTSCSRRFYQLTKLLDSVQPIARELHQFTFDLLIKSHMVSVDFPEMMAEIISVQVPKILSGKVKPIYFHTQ
Assay: Androgen Receptor ELISA assay (PathScan AR ELISA) in VCaP cells: AR degradation, Dmax and DC50
Format: cell-based
Conditions: for DC50: read-out: VCaP DC50; for Dmax: VCaP, read-out: VCaP Dmax (%)
Outline: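 VCaP cells, 30,000/well, grown ≥3 days in phenol red-free RPMI with 5% charcoal-stripped FBS; compound added in 0.1% DMSO with 0.1 nM R1881, 7 half-log doses, 24 h. Lysate AR quantified by PathScan sandwich ELISA, HRP/TMB read at 450 nm, giving DC50 and Dmax.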

| Compound | DC50 (VCaP cells, Table 36) [µM] | Dmax (VCaP cells, Table 36) [%] | Dmax [%] | VCaP Dmax (%) (VCaP cells, Table 36) |
| --- | --- | --- | --- | --- |
| Cc1ncsc1-c1ccc([C@H](C)NC(=O)[C@@H]2C[C@@H](O)CN2C(=O)[C@H](C(C)C)N2Cc3ccc(N4CCN(CCCc5ccc(C(=O)N[C@H]6C(C)(C)[C@H](Oc7ccc(C#N)c(Cl)c7)C6(C)C)cc5)CC4)cc3C2=O)cc1 [Example 778, (2S,4R)-1-((S)-2-(6-(4-(3-(4-(((1r,3r)-3-(3-chloro-4-cyanophenoxy)-2,2,4,4-tetramethylcyclobutyl)carbamoyl)phenyl)propyl)piperazin-1-yl)-1-oxoisoindolin-2-yl)-3-methylbutanoyl)-4-hydroxy-N-((S)-1-(4-(4-methylthiazol-5-yl)phenyl)ethyl)pyrrolidine-2-carboxamide] | > 0.501 |  | < 25 |  |
| Cc1ncsc1-c1ccc([C@H](C)NC(=O)[C@@H]2C[C@@H](O)CN2C(=O)[C@@H](NC(=O)CCCCN2CCN(c3ccc(C(=O)N[C@H]4C(C)(C)[C@H](Oc5ccc(C#N)c(Cl)c5)C4(C)C)cn3)CC2)C(C)(C)C)cc1 [Example 779, N-((1r,3r)-3-(3-chloro-4-cyanophenoxy)-2,2,4,4-tetramethylcyclobutyl)-6-(4-(5-(((S)-1-((2S,4R)-4-hydroxy-2-(((S)-1-(4-(4-methylthiazol-5-yl)phenyl)ethyl)carbamoyl)pyrrolidin-1-yl)-3,3-dimethyl-1-oxobutan-2-yl)amino)-5-oxopentyl)piperazin-1-yl)nicotinamide] | > 0.501 | < 25 |  |  |
| Cc1ncsc1-c1ccc([C@H](CO)NC(=O)[C@@H]2C[C@@H](O)CN2C(=O)[C@@H](NC(=O)CCCCN2CCN(c3ccc(C(=O)N[C@H]4C(C)(C)[C@H](Oc5ccc(C#N)c(Cl)c5)C4(C)C)cn3)CC2)C(C)(C)C)cc1 [Example 780, N-((1r,3r)-3-(3-chloro-4-cyanophenoxy)-2,2,4,4-tetramethylcyclobutyl)-6-(4-(5-(((S)-1-((2S,4R)-4-hydroxy-2-(((R)-2-hydroxy-1-(4-(4-methylthiazol-5-yl)phenyl)ethyl)carbamoyl)pyrrolidin-1-yl)-3,3-dimethyl-1-oxobutan-2-yl)amino)-5-oxopentyl)piperazin-1-yl)nicotinamide] | < 0.05 | 26 to 50 |  |  |
| Cc1ncsc1-c1ccc(C(CO)NC(=O)[C@@H]2C[C@@H](O)CN2C(=O)[C@@H](NC(=O)CCCN2CCN(c3ccc(C(=O)N[C@H]4C(C)(C)[C@H](Oc5ccc(C#N)c(Cl)c5)C4(C)C)cn3)CC2)C(C)(C)C)cc1 (stereo partly drawn) [Example 781, N-((1r,3r)-3-(3-chloro-4-cyanophenoxy)-2,2,4,4-tetramethylcyclobutyl)-6-(4-(4-(((S)-1-((2S,4R)-4-hydroxy-2-(((R)-2-hydroxy-1-(4-(4-methylthiazol-5-yl)phenyl)ethyl)carbamoyl)pyrrolidin-1-yl)-3,3-dimethyl-1-oxobutan-2-yl)amino)-4-oxobutyl)piperazin-1-yl)nicotinamide] | > 0.501 | 26 to 50 |  |  |
| Cc1ncsc1-c1ccc([C@H](C)NC(=O)C2C[C@@H](O)CN2C(=O)[C@@H](NC(=O)COCCN2CCCN(c3ccc(C(=O)N[C@H]4C(C)(C)[C@H](Oc5ccc(C#N)c(Cl)c5)C4(C)C)cn3)CC2)C(C)(C)C)cc1 (stereo partly drawn) [Example 782, N-((1r,3r)-3-(3-chloro-4-cyanophenoxy)-2,2,4,4-tetramethylcyclobutyl)-6-(4-(2-(2-(((S)-1-((2S,4R)-4-hydroxy-2-(((S)-1-(4-(4-methylthiazol-5-yl)phenyl)ethyl)carbamoyl)pyrrolidin-1-yl)-3,3-dimethyl-1-oxobutan-2-yl)amino)-2-oxoethoxy)ethyl)-1,4-diazepan-1-yl)nicotinamide] | < 0.05 | > 71 |  |  |
| Cc1ncsc1-c1ccc([C@H](C)NC(=O)[C@@H]2C[C@@H](O)CN2C(=O)[C@@H](NC(=O)CN2CCN(CCCc3ccc(C(=O)N[C@H]4C(C)(C)[C@H](Oc5ccc(C#N)c(Cl)c5)C4(C)C)cc3)CC2)C(C)(C)C)cc1 [Example 783, (2S,4R)-1-((S)-2-(2-(4-(3-(4-(((1r,3r)-3-(3-chloro-4-cyanophenoxy)-2,2,4,4-tetramethylcyclobutyl)carbamoyl)phenyl)propyl)piperazin-1-yl)acetamido)-3,3-dimethylbutanoyl)-4-hydroxy-N-((S)-1-(4-(4-methylthiazol-5-yl)phenyl)ethyl)pyrrolidine-2-carboxamide] | < 0.05 | > 71 |  |  |
| Cc1ncsc1-c1ccc([C@H](C)NC(=O)C2C[C@@H](O)CN2C(=O)[C@@H](NC(=O)COCCN2C3CCC2CN(c2ccc(C(=O)NC4C(C)(C)C(Oc5ccc(C#N)c(Cl)c5)C4(C)C)cn2)C3)C(C)(C)C)cc1 (stereo partly drawn) [Example 787, N-((1r,3r)-3-(3-chloro-4-cyanophenoxy)-2,2,4,4-tetramethylcyclobutyl)-6-(8-(2-(2-(((2S)-1-((4R)-4-hydroxy-2-(((S)-1-(4-(4-methylthiazol-5-yl)phenyl)ethyl)carbamoyl)pyrrolidin-1-yl)-3,3-dimethyl-1-oxobutan-2-yl)amino)-2-oxoethoxy)ethyl)-3,8-diazabicyclo[3.2.1]octan-3-yl)nicotinamide] | < 0.05 |  |  | ++++ (71% ≤ Dmax) |

Continued, in another order:

| DC50 (VCaP cells, Table 36) [µM] | Dmax (VCaP cells, Table 36) [%] | Compound | Dmax [%] | VCaP Dmax (%) (VCaP cells, Table 36) |
| --- | --- | --- | --- | --- |
| > 0.501 | < 25 | COc1cc(C#N)ccc1[C@H](C)NC(=O)[C@@H]1C[C@@H](O)CN1C(=O)[C@@H](NC(=O)CCCCN1CCN(c2ccc(C(=O)N[C@H]3C(C)(C)[C@H](Oc4ccc(C#N)c(Cl)c4)C3(C)C)cn2)CC1)C(C)(C)C [Example 784, N-((1r,3r)-3-(3-chloro-4-cyanophenoxy)-2,2,4,4-tetramethylcyclobutyl)-6-(4-(5-(((S)-1-((2S,4R)-2-(((S)-1-(4-cyano-2-methoxyphenyl)ethyl)carbamoyl)-4-hydroxypyrrolidin-1-yl)-3,3-dimethyl-1-oxobutan-2-yl)amino)-5-oxopentyl)piperazin-1-yl)nicotinamide] |  |  |
| < 0.05 | 51 to 70 | COc1cc(C#N)ccc1[C@H](C)NC(=O)[C@@H]1C[C@@H](O)CN1C(=O)[C@@H](NC(=O)COCCN1CCN(c2ccc(C(=O)N[C@H]3C(C)(C)[C@H](Oc4ccc(C#N)c(Cl)c4)C3(C)C)cn2)CC1)C(C)(C)C [Example 785, N-((1r,3r)-3-(3-chloro-4-cyanophenoxy)-2,2,4,4-tetramethylcyclobutyl)-6-(4-(2-(2-(((S)-1-((2S,4R)-2-(((S)-1-(4-cyano-2-methoxyphenyl)ethyl)carbamoyl)-4-hydroxypyrrolidin-1-yl)-3,3-dimethyl-1-oxobutan-2-yl)amino)-2-oxoethoxy)ethyl)piperazin-1-yl)nicotinamide] |  |  |
| < 0.05 | > 71 | Cc1ncsc1-c1ccc([C@H](C)NC(=O)C2C[C@@H](O)CN2C(=O)[C@@H](NC(=O)COCCN2[C@H](C)CN(c3ccc(C(=O)N[C@H]4C(C)(C)[C@H](Oc5ccc(C#N)c(Cl)c5)C4(C)C)cn3)C[C@@H]2C)C(C)(C)C)cc1 (stereo partly drawn) [Example 786, N-((1r,3R)-3-(3-chloro-4-cyanophenoxy)-2,2,4,4-tetramethylcyclobutyl)-6-((3S,5R)-4-(2-(2-(((2S)-1-((4R)-4-hydroxy-2-(((S)-1-(4-(4-methylthiazol-5-yl)phenyl)ethyl)carbamoyl)pyrrolidin-1-yl)-3,3-dimethyl-1-oxobutan-2-yl)amino)-2-oxoethoxy)ethyl)-3,5-dimethylpiperazin-1-yl)nicotinamide] |  |  |

Reference: patent publication US11427548B2 (Arvinas Operations, Inc., priority 2015, dated 2022)
